# Assay results: patent publication EP4578939A1, “MYC[…]. BASED ON VARIOUS CARBON-NITROGEN METABOLIC […], METHOD FOR ISOLATING SAME, AND USE THEREOF” (Peng, Guanghao, priority 2022, dated 2024)
# Tests used:
# Type in all cases: cell-based
# [1] = system: Mycobacterium sp. with deposit number of CGMCC No.21273; assay: BIOLOG GEN III growth experiments; conditions: growth on the substance; strain CGMCC No.21273 (JD)
# [2] = system: Mycobacterium sp. with the deposit number CGMCC No.21272; assay: BIOLOG GEN III growth experiments; conditions: growth on the substance; strain CGMCC No.21272 (YT)
# [3] = system: Mycobacterium sp. with deposit number of CGMCC No.21272; assay: antibiotic susceptibility experiment; conditions: strain CGMCC No.21272 (YT)
# [4] = system: Mycobacterium sp. with deposit number of CGMCC No.21273; assay: antibiotic susceptibility experiment; conditions: strain CGMCC No.21273 (JD)
# [5] = system: Mycobacterium sp. with the deposit number CGMCC No.21272; assay: BIOLOG chemically sensitive experiments; conditions: strain CGMCC No.21272 (YT)
# [6] = system: Mycobacterium sp. with deposit number of CGMCC No.21273; assay: BIOLOG chemically sensitive experiments; conditions: strain CGMCC No.21273 (JD)
Compound,BIOLOG GEN III (growth experiments) Results [1],BIOLOG GEN III (growth experiments) Results [2],further results
CO[C@@H]1O[C@H](CO)[C@@H](O)[C@H](O)[C@H]1O [β-methyl-D-glucoside],-,-,
"CC(O)CC(=O)O (racemic) [β-hydroxy-D,L-butyric acid]",+,+,
OC[C@H]1O[C@H](O[C@H]2[C@H](O)[C@@H](O)[C@H](O)O[C@@H]2CO)[C@H](O)[C@@H](O)[C@@H]1O [D-maltose],-,-,
O=C1CN(/N=C/c2ccc([N+](=O)[O-])o2)C(=O)N1 [Furantoin],,,Susceptibility degree [3]: R; Susceptibility degree [4]: R
"CC(O)C(=O)[O-].[Na+] (centres unmarked) [1 % Sodium lactate, Sodium lactate]",,,BIOLOG GEN II (chemically sensitive experiments) Results [5]: +; BIOLOG GEN II (chemically sensitive experiments) Results [6]: +
CCC(O)C(=O)O (centres unmarked) [A-hydroxybutyr atic acid],-,-,
OC[C@@H](O)C(O)[C@H](O)CO [D-arabitol],-,-,
COC(=O)[C@@H](C)O [D-methyl lactate],-,-,
COc1cc(-c2ccc(-n3nc(-c4ccccc4)n[n+]3-c3ccccc3)c(OC)c2)ccc1-n1nc(-c2ccccc2)n[n+]1-c1ccccc1.[Cl-].[Cl-] [Tetrazolium blue],,,BIOLOG GEN II (chemically sensitive experiments) Results [5]: -; BIOLOG GEN II (chemically sensitive experiments) Results [6]: -
Cotrimoxazole,,,Susceptibility degree [3]: S; Susceptibility degree [4]: S
D-salicin,-,-,
O=C(O)C[C@@H](O)C(=O)O [D-malic acid],-,-,
OC[C@H]1O[C@H](O[C@H]2O[C@H](CO)[C@@H](O)[C@H](O)[C@H]2O)[C@H](O)[C@@H](O)[C@@H]1O [D-trehalose],+,+,
O=C(O)C[C@H](O)C(=O)O [L-malic acid],+,+,
[Cl-].[Li+] [Lithium chloride],,,BIOLOG GEN II (chemically sensitive experiments) Results [5]: +; BIOLOG GEN II (chemically sensitive experiments) Results [6]: +
Romifloxacin,,,Susceptibility degree [3]: S; Susceptibility degree [4]: S
O=[Te]([O-])[O-].[K+].[K+] [Potassium tellurite],,,BIOLOG GEN II (chemically sensitive experiments) Results [5]: +; BIOLOG GEN II (chemically sensitive experiments) Results [6]: +
O=C(CO)[C@@H](O)[C@H](O)[C@H](O)COP(=O)(O)O [D-fructose-6-phosphoric acid],+,+,
OC[C@H]1O[C@H](OC[C@H]2O[C@H](OC[C@H]3O[C@H](O[C@]4(CO)O[C@H](CO)[C@@H](O)[C@@H]4O)[C@H](O)[C@@H](O)[C@@H]3O)[C@H](O)[C@@H](O)[C@H]2O)[C@H](O)[C@@H](O)[C@H]1O [Stachyose],-,-,
Tween 40,+,+,
O=C(O)CCC(=O)C(=O)O [α-ketoglutarate],+,+,
Penicillin,,,Susceptibility degree [3]: R; Susceptibility degree [4]: R
O=C[C@H](O)[C@@H](O)[C@H](O)[C@H](O)COP(=O)(O)O [D-glucose-6-phosphoric acid],-,-,
"[Cl-].[Na+] [1%NaCl, NaCl]",,,BIOLOG GEN II (chemically sensitive experiments) Results [5]: +; BIOLOG GEN II (chemically sensitive experiments) Results [6]: +
C[C@H](O)C(=O)O [L-lactic acid],-,-,
CO[C@H]1/C=C/O[C@@]2(C)Oc3c(C)c([O-])c4c(O)c(cc(O)c4c3C2=O)NC(=O)/C(C)=C\C=C\[C@H](C)[C@H](O)[C@@H](C)[C@@H](O)[C@@H](C)[C@H](OC(C)=O)[C@@H]1C.[Na+] [Rifamycin SV],,,BIOLOG GEN II (chemically sensitive experiments) Results [5]: +; BIOLOG GEN II (chemically sensitive experiments) Results [6]: +
OC[C@H]1O[C@H](OC[C@H]2O[C@H](O[C@]3(CO)O[C@H](CO)[C@@H](O)[C@@H]3O)[C@H](O)[C@@H](O)[C@@H]2O)[C@H](O)[C@@H](O)[C@H]1O [D-raffinose],-,-,
OC[C@H]1O[C@H](OCC2O[C@@H](O)[C@H](O)[C@@H](O)[C@@H]2O)[C@H](O)[C@@H](O)[C@H]1O (stereo partly drawn) [D-melibiose],+,+,
